Experimental findings from US8623377B2, “Joint-homing peptides and uses thereof” (University of Maryland, Baltimore, priority 2011, dated 2014) are described below.

The subject of assay [1] is HUVECs. Put plainly: Endothelial tube (tubule) formation on Matrigel with VEGF. It counts as cell-based, human. As to conditions: VEGF 10 ng/mL, peptide 0-100 μg/mL. Here is the method: FIG. 4A: Draining lymph node leukocytes from arthritic rats were dye-tagged with PKH67 and injected i.v. into arthritic rats. One group of rats was left untreated, and the other groups were treated with ADK or NQR peptide. After 24 hours, the synovium-infiltrating cells (SICs) were harvested from the joints, subjected to cytospin, and analyzed by fluorescence microscopy (left). In parallel, another set of synovium-infiltrating cells were stained with PE-labeled anti-CD3 or anti-CD 11b/c+ antibody and analyzed by flow cytometry (right). FIG. 4B: HUVECs were cultured on Matrigel-coated wells for 24 hours in the presence of VEGF (10 ng/mL) and various concentrations (0-100 μg/mL) of NQR (left), ADK (center), and RGD (right) peptides. The branches of vessel-like tubes were counted. A reprensentative set of results is shown. *P<0.05, compared with the VEGF-alone control.
HUVECs (1×10^4) were cultured in 80 μL/well of growth factor-reduced Matrigel (BD Biosciences) in a 96-well plate in 100 μL/well of F-12K medium (with no supplements). These cells were then treated for 20 h with VEGF (R&D Systems) in the presence or absence of different concentrations of peptides (NQR, ADK, or RGD). Tubule formation was observed under a microscope, quantitated, and photographed.

Assay [2] has as its system leukocyte infiltration into the joints of arthritic rats. Nature of the assay: In vivo migration of PKH67-labeled leukocytes into the joints. More on the design: species or system Lewis rat.
In assay [3] the test system is Akt. Put plainly: VEGF-induced signaling in HUVECs, Western blot p-Akt. Format: cell-based, human. As to conditions: peptide 10, 50, 100 μg/mL 1 h, then VEGF 10 ng/mL 20 min. The source says:
FIG. 6A: HUVECs were stimulated with VEGF and treated with the indicated concentrations of peptides. Phosphorylated ERK1/2 and Akt, as well as total ERK1/2 and Akt, were detected by Western blot analysis. FIG. 6B: Thereafter, p-ERK1/2 and p-Akt were quantified by densitometry, normalized to total ERK1/2 (left) and Akt (right), respectively, and compared with cells in serum-free medium. The results of a representative experiment from a set of three independent experiments are shown. *P<0.05, compared with the positive control.
HUVECs were grown in F-12K medium in the presence of endothelial cell growth supplement (ECGS) (BD Biosciences) and 15% FBS. Confluent cells were starved in basal medium (without ECGS and FBS) for 6 h. Then the cells were pretreated for 1 h with different concentrations (10, 50, and 100 μg/mL) of a peptide (NQR, ADK, or RGD) in fresh basal medium, followed by treatment with VEGF (10 ng/mL) for another 20 min. The conditional medium was discarded, and the cells were lysed using a lysis buffer containing protease inhibitors and phosphatase inhibitors. The cell lysate was then centrifuged, and the resulting supernatant was used for analysis of signaling molecules using specific antibodies to human pERK1/2, ERK1/2, pAkt, Akt, and GAPDH (Cell Signaling Technology) by Western blot analysis. The intensity of the bands in the gel was quantified by densitometry. The levels of p-ERK1/2 and p-Akt were normalized to total ERK1/2 and Akt, respectively, and compared with cells in serum-free medium.
For orientation: Immunoblotting shows a protein as a band on a membrane.

For assay [4], the system named is adjuvant arthritis in Lewis rats. Nature of the assay: Antiarthritic activity in the adjuvant arthritis (AA) model, arthritic score. Format: in vivo, Lewis rat. Here is the method: (§1) FIG. 3A: Group of arthritic Lewis rats (n=4 per group) were injected with a peptide (AD, NQR, or RGD) or PBS i.v. on the days indicated by the arrows either at the onset or just after the onset of arthritis. The its were monitored regularly for the disease severity, presented as “arthritic score”. […] The sections were graded for histopathological features associated with arthritis. B, bone; C, cartilage, JS, joint space; SIC, synovium-infiltrating cells.
(§2) The synthetic peptide corresponding to the selected phage-encoded peptide was diluted in PBS and injected i.v. into Lewis rats beginning either at the onset or just after the onset of arthritis after Mtb injection. The peptide was injected to rats on alternate days at a dose of 1 or 2 mg/kg body weight. A total of three or four injections were given to each rat. Control animals received an equal volume of PBS. All rats were graded regularly for clinical signs of arthritis (36). The hind paws of these rats were harvested and processed for histopathological examination.
AA was induced in Lewis rats by immunizing them with 1 mg/rat of heat-killed M. tuberculosis H37Ra (Mtb; Difco) in 200 μL of mineral oil (Sigma-Aldrich) via s.c. injection at the base of the tail. Beginning on day 7 after immunization, the rats were observed regularly for signs of arthritis in the paws. The severity of arthritis was evaluated based on erythema and swelling as described previously. The highest score for each paw was 4, and the total maximum score for each rat was 16. The course of AA in the Lewis rat involved the following phases: incubation (days 0-8), onset (days 9-11), peak (days 15-18), and recovery (days 21-27).

The subject of assay [5] is hind paw joints of arthritic Lewis rats. Nature of the assay: Histopathological evaluation of hind paw joints of arthritic rats. Format: in vivo, Lewis rat. Conditions: H&E-stained hind paw sections. On the procedure: as §1, §2
Hind paws of rats were harvested, skinned, and fixed with 10% phosphate buffered formalin (Fisher Scientific) for 3-7 d (1). […] Tissue sections (5 μm) were placed on a glass slide, stained with H&E (Sigma-Aldrich), and assessed for morphological changes and cellular infiltrates.

Regarding “CLDNQRPKC (Synthetic peptide homing to joint in an animal) [NQR peptide, joint-homing phage-derived synthetic peptide]”, the “effect on endothelial cell tube formation” value in assay [1] was “inhibited tube formation”. Moreover, in assay [2] (CD3+ T cells vs CD11b/c+ myeloid cells, flow cytometry), the “cell type on which the effect on infiltration was more marked” value is recorded as “more marked on CD3+ T cells than on CD11b/c+ myeloid cells”. Further, the “leukocyte infiltration into the joints” value in assay [2] (versus nontreated arthritic or ADK-treated arthritic rats, 24 h after cell transfer) is “significantly less leukocyte infiltration”. Further, in assay [3], the “effect on VEGF-induced pAkt” value was “had no effect on pAkt”. Moreover, the “difference in arthritic score versus PBS/ADK” value in assay [4] (from day 15 to day 27 (FIG. 3A center)) was “significant”. The “difference in arthritic score versus PBS” value in assay [4] (from day 15 to day 27 (FIG. 3A right)) was “significant”. Further, in assay [4] (i.v. injection around the time of onset of arthritis, 1 or 2 mg/kg on alternate days), the “suppression of the arthritic process” value is “suppressed the arthritic process in a dose-dependent manner”. Also, the down-modulation of arthritis result in assay [4] (injected just after the onset of AA) was “effective in down-modulating arthritis”. Further, the “joint damage (histopathology) versus PBS-treated arthritic rats” value in assay [5] is given as “much less damage”.
